Data on 91 molecules can be found in a melting point compilation (Tetko et al.; mined from patent text by program, amines drawn as free bases though some values may be those of a salt).

`COc1ccc2c(c1)c(CC(=O)OCC(=O)NCCO[N+](=O)[O-])c(C)n2C(=O)c1ccc(Cl)cc1`: the melting point (as a rule, the temperature, or range, at which the solid turns liquid) was 128 to 129 °C.
The molecule `CCC(Nc1cc(C)nc(Oc2c(C)cc(C)cc2C)c1C(=O)OC)C(C)O` (stereo unspecified) displayed a melting point of 116 to 120 °C.
Molecule `CCOC(=O)c1cnn(-c2ccccc2N)c1O` showed a melting point of 151 to 154 °C.
Molecule `OCc1nc2cc(Cl)cnc2[nH]1` registered a melting point of 209 to 211 °C.
The value for `N#Cc1c(N2CCN(C(=O)c3ccco3)CC2)c2cc(Cl)ccc2n(Cc2ccc(F)cc2)c1=O` was 253 °C; that for `COc1ccc(Cl)c(NC(=S)N(CCN2C(=O)c3ccccc3C2=O)OCc2ccccc2)c1Cl` was 175 to 176 °C; that for `COc1cc(NOC(C)=O)c(Cl)c(OC)c1` was 117 to 118 °C.
For the molecule `CC(=O)N(O)C(C)c1cc(C(C)(C)C)c(O)c(C(C)(C)C)c1` (stereo unspecified), the melting point is 153 to 154 °C.
`CCOC(=O)C(=O)CC(=O)c1ccc2c(c1)c(=O)c(CCC(=O)O)cn2Cc1ccc(F)cc1` registered a melting point of 177 to 180 °C.
With `COC(=O)c1cc2c([nH]c1=O)CCCCCC2`, the melting point lay in the range of 220 to 224 °C.
As to `CC(=O)NC[C@H]1CN(c2ccc(N3CCC(Cc4nnn(C)n4)CC3)c(F)c2)C(=O)O1`, the melting point lay within 136 to 138 °C.
The value for `Cc1cc(Cl)cc2c1NS(=O)(=O)N(C(C)C)C2=O` was 142 to 144 °C; that for `CC(C)(C)c1nc2cc(N3CCCCC3)c(NC(N)=S)cc2s1` was 228 to 232 °C; that for `COC(=O)C(Oc1ccc([N+](=O)[O-])cc1)C(C)=O` (stereo unspecified) was 87.5 to 88 °C.
The molecule `CCS(=O)(=O)CCC(=O)NNC(=O)N1Cc2ccccc2Oc2ccc(OC)cc21` gave a melting point of 187 to 190 °C.
Molecule `COC(=O)C1=C(C)N(CCCN2CCCCC2)c2cc[nH]c(=O)c2C1c1ccccc1C(F)(F)F` (stereo unspecified) registered a melting point of 168 to 170 °C.
Molecule `CCOC(=O)C1Cc2cc(OC)c(OC)cc2C1=O` (stereo unspecified) gave a melting point of 140 to 141 °C.
Take `COC(=O)C(C)(C)NC(=O)Nc1ccc(Cl)c(C(F)(F)F)c1`: the melting point lay within 141 to 142 °C.
Molecule `O=C1C(=O)N(c2ccc(Cl)c(Cl)c2)C(=O)N1c1cccc(C(F)(F)F)c1` registered a melting point of 116 °C.
`Cc1c(NC(=O)c2ccc(-c3ccc(F)cc3)cc2)ccc2cc(CN3CCC(c4ccccc4)CC3)cnc12` displayed a melting point of 171 to 172 °C.
Molecule `O=C(NCCc1cccs1)C12CC3CC(CC(O)(C3)C1)C2` yielded a melting point of 118 to 119 °C.
Turning to `CS(=O)(=O)c1ccc(C[C@H](CO)NC(=O)OCc2ccccc2)cc1`, the melting point lay in the range of 110 to 112 °C.
With `C=C(C)c1ccc2c(c1)C(=O)c1ccccc1C2=O`, the melting point stood at 126 °C.
As to `N#Cc1c(F)cc(OCCOc2ccc3ccccc3c2)cc1F`, the melting point lay within 148 to 149 °C.
Consider `O=C(Cc1ccccc1)N1CCN(Cc2n[nH]c3cc(F)ccc23)CC1`, for which the melting point was in the range of 173 to 174 °C.
For `CCn1ncc(OCc2ccc([Si](C)(C)C)cc2)c(Cl)c1=O`, the melting point lay in the range of 122 to 125 °C.
The molecule `CC(O)c1ccc(-c2ccc(O)cc2)cc1` (stereo unspecified) had a melting point of 159 to 160 °C.
The value for `Cc1cc(-c2ccccc2)nc2nc(N)ccc12` was 253 to 255 °C; that for `Cc1ccc(S(=O)(=O)NCc2ccccc2CC(=O)O)cc1` was 155 to 156 °C.
For `COc1ccc(-c2nc3ccc(C=Cc4ccc5nc(-c6ccc(OC)cc6)oc5c4)cc3o2)cc1`, the melting point amounted to 162 °C.
Molecule `O=C(Cc1ccc(C(=O)O)cc1)C(=O)c1ccccc1` displayed a melting point of 192 to 195 °C.
The molecule `CC(=O)OC1CCC2(C)C(=CC(=O)C3C4CCC(=O)C4(C)CCC32)C1=O` (stereo unspecified) came in with a melting point of 193 to 195 °C.
Molecule `CCC(CC)(CC)n1ncc(C(=O)NC)c1C#N` registered a melting point of 85 to 87 °C.
`CS(=O)(=O)c1cccc(NC(=O)c2cnn3ccc(-c4ccc(Cl)cc4)nc23)c1` showed a melting point of 258 to 260 °C.
`CCCCOC(=O)c1ccc(Nc2nc(Nc3ccc(C(=O)OCCCC)cc3)nc(-c3cccn3Cc3ccccc3)n2)cc1`: the melting point lay within 173 to 174 °C.
The same measure for `CCOc1cc(Cc2cnc(N)nc2N)cc(OCC)c1N`: 192 to 194 °C; for `Cc1cccc(SCc2c(C(C)C)nc(C(C)C)c(CO)c2-c2ccc(F)cc2)c1`: 92 to 93 °C; for `O=C1CCN(c2ncc(-c3ccc(Cl)cc3Cl)nn2)CC1`: 120 to 122 °C.
In the case of `Cc1cccc(I)c1C(=O)NC(C)(C)CS(C)(=O)=O`, the melting point was in the range of 134 to 136 °C.
Molecule `Fc1cccc(-c2sc(-c3ccccc3)cc2-c2ccccc2)c1` returned a melting point of 118 to 119 °C.
The molecule `CCC(=O)Nc1cccc2c1C(=O)c1c-2n[nH]c1-c1ccc(OC)cc1` came in with a melting point of 287 °C.
With `O=C1CCC2=C(CCCC2)N1`, the melting point fell in the range of 143 to 144 °C.
The value for `COc1ccc2c3c1OC1C(=O)CC(C)C4(OC)C(C2)N(C)CCC314` (stereo unspecified) was 204 to 205 °C.
The value for `Cc1nc(NC(=O)c2cnn3c(C(F)(F)F)cc(-c4ccc(Cl)cc4)nc23)sc1S(N)(=O)=O` was 305 °C; that for `CCOCc1nc2c(N)nc3cc(N4CCN(CC)C4=O)ccc3c2n1CC(C)(C)O` was 210 to 212 °C; that for `C1CNCCNCCNCNCCNC1` was 49 to 51 °C.
`CS(=O)(=O)N(Cc1cncnc1)c1ccc(F)cc1F`: the melting point was in the range of 142 to 145 °C.
`O=C(Nc1cccc(C(F)(F)F)c1)Nc1ccc2c(c1)OC(F)(F)O2` showed a melting point of 187 to 191 °C.
The molecule `CC1=C(Cc2ccc(C(=O)O)cc2)C(=O)C2C=CC=CC2C1=O` (stereo unspecified) showed a melting point of 206 to 208 °C.
Consider `Cc1ccc(C(O)CCN(C)C)s1` (stereo unspecified), for which the melting point was 66.5 to 68 °C.
The same measure for `COCCSc1ccccc1S(=O)(=O)NC(=O)Nc1nc(C)nc(OC)n1`: 127 to 128 °C.
`O=C(NC1CCCCC1)OC1CCN(C(=O)Oc2ccc(Oc3ccccc3)cc2)CC1` yielded a melting point of 137 to 139 °C.
In the case of `COc1ccc(C=CC=O)cc1OC`, the melting point fell in the range of 74 to 77 °C.
Molecule `Cc1ccc2c(c1)c(C=O)c(Cl)n2C` returned a melting point of 120 to 121 °C.
The value for `OC(c1cc2ccccc2c2ccccc12)c1cc2ccccc2c2ccccc12` was 236 to 238 °C.
`Nc1ncnc2c1ncn2OCC(O)CCP(=O)(O)O` (stereo unspecified) had a melting point of 265 to 267 °C.
Molecule `Cc1ccn(-c2ccc(C(=O)c3cccc4c3Nc3ncccc3C(C)N4)c(C(F)(F)F)c2)n1` (stereo unspecified) yielded a melting point of 188 to 190 °C.
`COc1ccc(C2CCC(=O)Nc3ccccc3C2=O)cc1` (stereo unspecified) displayed a melting point of 244 to 245 °C.
`CN(C)Cc1cc(C(=O)c2ccc3ccccc3c2)cc(C(C)(C)C)c1O` gave a melting point of 162 to 164 °C.
As for `NS(=O)(=O)Oc1ccc2c(c1)S(=O)(=O)N=C2C1CCCCC1`, the melting point stood at 170 °C.
`CCCCCCCN(CCN1CCN(CCCSc2nc3ccccc3o2)CC1)C(=O)Nc1c(C(C)C)cccc1C(C)C` came in with a melting point of 93 to 94 °C.
As for `Fc1ccc([C@@H]2Cc3cnc(Nc4ccc(CCN5CCCCC5)cc4)nc3-c3ccccc32)cc1`, the melting point is 185 to 188 °C.
Regarding `O=C1NCc2cccn2-c2ccsc21`, the melting point was determined as 191 °C.
As to `Cc1cccc(-c2nc(C(C)C)[nH]c2-c2cccc(-c3ccc(C(=O)N4CCS(=O)CC4)cc3)c2)n1`, the melting point was 136 to 140 °C.
The same measure for `N#CC(C#N)(COc1ccccc1Cl)NC(=O)c1ccc(OC(F)(F)F)cc1`: 154 to 155 °C.
As to `Cc1cc(C)cc(-n2c(C=CC3CC(O)CC(O)O3)c(C(C)C)c3ccccc3c2=O)c1` (mixture of isomers), the melting point lay in the range of 180 to 182 °C.
`COC(=O)C=C(C)c1ccc(CC(C)(C)NCC(O)c2ccccc2)cc1` (stereo unspecified) had a melting point of 98 to 103 °C.
Take `O=C(Cc1ccccc1NS(=O)(=O)C(F)(F)F)N1CCOCC1`: the melting point is 95.5 to 97 °C.
`CS(C)=Nc1nc(OCc2ccccc2)ncc1F` came in with a melting point of 125 to 129 °C.
In turn, `CCc1ccc2c(=O)c(CO)cn(C)c2c1` yielded a melting point of 147 to 148 °C.
The same measure for `CCOc1ccc(N=c2ccn3ccccc3c2)cc1`: 157 to 159 °C.
For the molecule `CCC(=O)C1=C(O)CC(c2cc3c(cc2[N+](=O)[O-])OCO3)CC1=O` (stereo unspecified), the melting point was found to be 139 °C.
In the case of `O=C1SCC(O)=C1Cc1ccc(Br)cc1`, the melting point was in the range of 201 to 202 °C.
In turn, `CONC(=N)c1ccc(-c2ccc(-c3ccc(C(=N)NOC)nc3)o2)cc1` registered a melting point of 235 to 237 °C.
For the molecule `CC1=NNC(C)=C(C(=O)NN)C1c1ccccc1` (stereo unspecified), the melting point came to 156 °C.
The value for `CCCC(=O)Nc1n[nH]c2cc(-c3ccc(F)cc3)ccc12` was 232 °C; that for `NC(=O)CNc1ncccc1NC(=O)c1ccccc1` was 194 to 195 °C.
Consider `COc1ccccc1CC1NC(=O)NC1=O` (stereo unspecified), for which the melting point is 186 °C.
In turn, `c1ccc(COc2n[nH]cc2-c2ccccc2)cc1` came in with a melting point of 163 °C.
In turn, `CNC(=O)CCC1CCN(Cc2cnc3cc(NC(=O)c4ccc(-c5ccc(F)cc5)cc4)c(C)cc3c2)CC1` displayed a melting point of 207 to 211 °C.
`Cc1nc(Cl)c2sccc2n1` returned a melting point of 82 to 84 °C.
`CC(=O)N1CCN(c2cc(-c3cnc4c(c3)N(Cc3cc(Cl)ccc3C(F)(F)F)CCN4)ccn2)CC1` registered a melting point of 241 °C.
The value for `CN1CCCc2cc(CC3SC(=O)NC3=O)ccc21` (stereo unspecified) was 122 to 125 °C.
With `CCC(=O)C(CCCOc1ccc2c(c1)OCO2)C(=O)CC`, the melting point came out at 68 °C.
Molecule `COc1cc(OC)cc(-c2nc(CCl)co2)c1` came in with a melting point of 85 to 86 °C.
`CC(C)(C)NC(=O)[C@@H]1CCCN1C(=O)[C@@H](O)[C@H](Cc1ccccc1)NC(=O)[C@H](CC(N)=O)NCc1ccccc1` returned a melting point of 96 to 99 °C.
With `CCOC(=O)c1c(CI)nc2cc(OC)c(OC)cc2c1-c1ccc(OC)c(OC)c1`, the melting point fell in the range of 170 to 171 °C.
For the molecule `CCOC(=O)Nc1ccc(C(=O)CCC(=O)O)cc1`, the melting point is 206 to 207 °C.
`COc1ccccc1OCC1SCCN1S(C)(=O)=O` (stereo unspecified): the melting point fell in the range of 118 to 120 °C.
In turn, `COc1ccc2[nH]cc(CN(C)C)c2c1Cl` showed a melting point of 145 to 149 °C.
`CCCCCCCCCCCCCCc1cc(C(=O)O)c[nH]1` gave a melting point of 83 to 85 °C.
